Test results: article PMC8279484 (Journal of Medicinal Chemistry, 2021)

Legend:
[1] = test system: NF-κB; assay: TNF-α-induced NF-κB reporter (pNF-κB-SEAP) assay in vSMCs; type: cell-based, mouse; settings: (R)-6 1 nM, TNF-α 1 ng/mL 24 h; TNF-α alone 5-fold
Description: Mouse primary vascular SMCs were cultured at 37 °C in a humidified atmosphere of 95% air/5% CO2 and maintained in Dulbecco’s modified Eagle’s medium (DMEM; Life Technologies) supplemented with 25 mmol/L glucose with 10% (v/v) FBS. For treatments, media contained only 1% FBS.
NF-κB activity was determined by measuring secreted alkaline phosphatase in the culture supernatant using the SEAP Reporter Gene Assay System (Roche Australia). Cell experiments were performed six to eight times, and the values presented are the mean ± SEM from independent experiments.

[2] = test system: THP-1 LUCIA monocytes; assay: Extrinsic cytotoxicity: LDH release after LPS challenge; type: cell-based, human; settings: for % LDH release relative to LPS: LPS 24 h
Description: We investigated the potential cytotoxicity of all candidate sLXms by assaying LDH release.[50] The response to LPS was arbitrarily set to 100%, and values were expressed relative to this. As previously reported by others, LPS provokes LDH release.[51] […] Ultimately, untreated cells defined the spontaneous cell release thresholds.
Lactate dehydrogenase (LDH) was assayed in cell supernatants to investigate possible cytotoxicity of the lead compound. LDH is rapidly released into the culture medium after disruption of the plasma membrane.[67],[69] After 24 h of exposure to sLXms, vehicle, or controls, followed by LPS stimulation, as described above, THP-1-Lucia NF-κB-cell supernatants were collected and LDH was assayed. Cytotoxicity was evaluated relative to vehicle controls. Maximum releasable LDH was determined in cells lysed with 2% Triton-X-100 (Sigma-Aldrich, Ireland). LDH levels were assessed by reading the absorbance at 490 nm (protein) and 690 nm (background noise), using a spectrophotometer (SPECTRAMAX M2, Molecular Devices (U.K.) Limited).

[3] = test system: NF-κB; parameters: method as in PMID 30213823; settings: LXA4 1 0.1 nM; 2 1 nM; cited from earlier work

SMILES	NF-κB activity, fold change relative to vehicle [1]	attenuation of LPS-induced toxicity (LDH) ([2]; LPS 50 ng/mL, 24 h, 1 pM–1 μM)	% LDH release relative to LPS ([2]; highest dose of (R)-6)	% LDH release relative to LPS ([2]; lowest dose of (R)-6)	effect on TNF-α-stimulated NF-κB activity [3]
CCCCC[C@@H](O)c1nc2ccccc2nc1/C=C/[C@@H](O)[C@@H](O)CCCC(=O)OC [(R)-6, Methyl (5S,6R,E)-5,6-Dihydroxy-8-(3-((R)-1-hydroxyhexyl)quinoxalin-2-yl)oct-7-enoate]	3 fold	1.3- to 2.4 fold	77 ± 10%	42 ± 4%	–
CCCCC[C@H](O)/C=C/C=C\C=C\C=C\[C@@H](O)[C@@H](O)CCCC(=O)O [Compound 1, LXA4]	–	–	–	–	reduced TNF-α-stimulated NF-κB activity
